In patent US7371766B2, “Curcumin analogs with anti-tumor and anti-angiogenic properties” (Emory University, priority 1999, dated 2008):
Read-outs that look alike come from different tables or passages of the source.

Tests used:
MDA-MB-435 = test: Emory Laboratory Cell Screen, Neutral Red, MDA-MB-435; format: cell-based, human; conditions: MDA-MB-435, Breast Cancer, 72 hours, read-out: Median Growth Inhibitory Concentration (GI50)
Experimental: (§1) Human tumor and endothelial cell lines were treated for 72 hours with compounds at a minimum of four concentrations between 0.1 μM-40 μM. Neutral Red assay was used to calculate cell viability.

[1] = test system: Tissue Factor (TF) production by human prostate cancer cell line PC-3; test: TF ELISA, PC-3; format: cell-based; conditions: 20 μM; for TF (% of DMSO): DMSO = 100%; for TF: mean of triplicate and S.D., DMSO 203 ± 6
Experimental: (§2) Cells were treated with 1% Triton X-100 in PBS and left overnight at 4° C. overnight to solubilize TF. […] IMUBIND Tissue Factor ELISA Kit (American Diagnostica Inc, Greenwich, Conn.) was used to determine TF concentration in each sample. The ELISA was carried out according to manufacturer's procedure.

HUVECS = test: Emory Laboratory Cell Screen, Neutral Red, HUVECS; format: cell-based, human; conditions: 72 hours, read-out: Median Growth Inhibitory Concentration (GI50)
Experimental: as §1

[2] = test system: Human tumor and endothelial cell lines; test: Emory Laboratory Cell Screen, mean over cell lines; format: cell-based; conditions: Mean over the Emory cell lines, 72 hours, read-out: Median Growth Inhibitory Concentration (GI50), Mean
Experimental: as §1

[3] = test system: Vascular Endothelial Growth Factor (VEGF) production by human melanoma cell line RPMI-7951; test: VEGF ELISA, RPMI-7951; conditions: for activity at 5 µM / activity at 20 µM: Homo sapiens, RPMI-7951, 72 h, read-out: VEGF; for VEGF ELISA / VEGF: RPMI-7951; for VEGF ELISA: DMSO control 3713
Experimental: RPMI-795 1, MDA-MB-231 and MDA-MB-435 cell lines were cultured in MEM-alpha medium (GIBCO-BRL, Long Island, N.Y.) containing 10% fetal bovine serum (RPMI-7951, MDA-MB-231) or 5% FBS (MDA-MB-435) at 37° C. and under 5% CO2/95% air. […] The cells were cultured in 48 well plates in all of the experiments described.
A VEGF enzyme-linked immunosorbent assay (ELISA) was utilized to determine the effect of the compounds of the present invention on VEGF production of a variety of human cancer cell lines. For the VEGF assay, cells were plated at a concentration of 80,000 cells/well and cultured overnight. Compounds or vehicle (DMSO 0.1%) were then added and the plates were incubated for 72 hours. Supernatant was then collected from each well and frozen in a −80° C. freezer until needed. Cell viability was determined by Neutral Red Assay. VEGF ELISA Kit (R & D, Minneapolis, Minn.) was used to determine the amount of VEGF in the culture supernatants. The ELISA was carried out according to the manufacturer's procedure.

RPMI-7951 human melanoma = test: Neutral Red Assay, cell viability, RPMI-7951; conditions: for viability at 5 µM / viability at 20 µM: Homo sapiens; for Neutral Red Uptake, % / Cell Viability: RPMI-7951; for Neutral Red Uptake, %: 72 hours; for Cell Viability: DMSO = 100
[4] = test system: Vascular Endothelial Growth Factor (VEGF) production by human prostate cancer cell line PC-3; test: VEGF ELISA, PC-3; format: cell-based; conditions: for VEGF (% of DMSO): DMSO = 100%
MDA-MB-231 = test: Emory Laboratory Cell Screen, Neutral Red, MDA-MB-231; format: cell-based, human; conditions: MDA-MB-231, Breast Cancer, 72 hours, read-out: Median Growth Inhibitory Concentration (GI50)
Experimental: as §1

[5] = test system: Vascular Endothelial Growth Factor (VEGF) production by human prostate cancer cell line DU-145; test: VEGF ELISA, DU-145; format: cell-based; conditions: for VEGF (% of DMSO): DMSO = 100%
[6] = test system: Tissue Factor (TF) production by human prostate cancer cell line DU-145; test: TF ELISA, DU-145; format: cell-based; conditions: 20 μM; for TF (% of DMSO): DMSO = 100%; for TF: mean of triplicate and S.D., DMSO 7699 ± 406
Experimental: as §2

[7] = test system: Tissue Factor (TF) production by human breast cancer cell line MDA-MB-231; test: TF ELISA, MDA-MB-231; format: cell-based; conditions: 0.5 μM
Experimental: (§3) IMUBIND Tissue Factor ELISA Kit (American Diagnostica Inc, Greenwich, Conn.) was used to determine TF concentration in each sample. The ELISA was carried out according to manufacturer's procedure.

[8] = test system: Tissue Factor (TF) production by human melanoma cell line RPMI-7951; test: TF ELISA, RPMI-7951; format: cell-based
Experimental: as §3

RPMI 7951 = test: Emory Laboratory Cell Screen, Neutral Red, RPMI 7951; format: cell-based, human; conditions: RPMI 7951, Melanoma, 72 hours, read-out: Median Growth Inhibitory Concentration (GI50)
Experimental: as §1

[9] = 5 μM, DMSO control 4197 (EF-25: 1045)
[10] = RPMI-7951, 72 h, read-out: Neutral Red Uptake, %
[11] = RPMI-7951, read-out: Cell Viability
[12] = 20 μM, mean of triplicate and S.D., DMSO 2103 ± 100
[13] = Table 4, 20 μM, mean of triplicate and S.D.
[14] = 20 μM, mean of triplicate and S.D., DMSO 18760 ± 2633
[15] = Table 5, 5 μM, DMSO control 7054

SMILES | TF (% of DMSO) [1] | TF [1] | activity at 5 µM [3] | activity at 20 µM [3] | VEGF ELISA ([3]; 5 μM) | VEGF [3, 9] | VEGF ELISA ([3]; 20 μM) | VEGF ([3]; 20 μM, DMSO control 4197) | viability at 5 µM (RPMI-7951 human melanoma; [10]) | viability at 20 µM (RPMI-7951 human melanoma; [10]) | VEGF (% of DMSO) ([4]; 20 μM) | VEGF [4, 12] | VEGF ([4]; Table 4, 20 μM, DMSO = 100) | VEGF [4, 13] | VEGF (% of DMSO) ([5]; 20 μM) | VEGF [5, 14] | VEGF ([5]; Table 4, 20 μM, DMSO = 100) | VEGF [5, 13] | TF (% of DMSO) [6] | TF [6] | further results
O=C(C=Cc1ccccc1O)C=Cc1ccccc1O [EF2, 1,5-Bis(2-hydroxyphenyl)penta-1,4-dien-3-one] | (36%) | 73 ± 10 pg/mL | 36% | 0% | 1295 pg/ml/well | 1522 pg/mL | 84 pg/ml/well | 0 pg/mL | 46% | 7% | (1%) | 26 ± 44 pg/mL | 1% | 26 ± 44 pg/mL | (40%) | 7516 ± 1915 pg/mL | 40% | 7516 ± 1915 pg/mL | (72%) | 5540 ± 364 pg/mL | GI50 (MDA-MB-435; Homo sapiens): 3.3 µM; GI50 (HUVECS; Homo sapiens, HUVEC): 1.7 µM; GI50 ([2]; Homo sapiens, Endothelial cell): 1.8 µM; viability at 5 µM (RPMI-7951 human melanoma; [11]): 68%; viability at 20 µM (RPMI-7951 human melanoma; [11]): 42%; GI50 (MDA-MB-231; Homo sapiens): 1.5 µM; TF ([7]; DMSO = 100): 82%; TF ([7]; DMSO control 45753): 37697 pg/mL; TF ([8]; 5 μM, DMSO = 100): 82%; TF ELISA ([8]; 5 μM, DMSO control 7054): 1009 pg/ml/well; TF ([8]; 20 μM, DMSO = 100): 14%; TF [8, 15]: 5780 pg/mL; TF ([8]; Table 5, 20 μM, DMSO control 7054): 1009 pg/mL; GI50 (RPMI 7951; Homo sapiens): 0.8 µM
O=C(C=Cc1ccc(O)cc1)C=Cc1ccc(O)cc1 [EF1, 1,5-Bis(4-hydroxyphenyl)penta-1,4-dien-3-one] | (53%) | 107 ± 9 pg/mL | 61% | 0% | 1923 pg/ml/well | 2573 pg/mL | 234 pg/ml/well | 0 pg/mL | 92% | 8% | (15%) | 325 ± 75 pg/mL | 15% | 325 ± 75 pg/mL | (105%) | 19616 ± 4624 pg/mL | 105% | 19616 ± 4624 pg/mL | (167%) | 12879 ± 149 pg/mL | viability at 5 µM (RPMI-7951 human melanoma; [11]): 98%; viability at 20 µM (RPMI-7951 human melanoma; [11]): 43%
COc1cc(C=C2CCCC(=Cc3ccc(O)c(OC)c3)C2=O)ccc1O [MD10] | (0%) | 0 ± 0 pg/mL |  |  | 1585 pg/ml/well | 1866 pg/mL | 315 pg/ml/well | 0 pg/mL |  |  | (29%) | 611 ± 248 pg/mL | 29% | 611 ± 248 pg/mL | (42%) | 7830 ± 2262 pg/mL | 42% | 7830 ± 2262 pg/mL | (76%) | 5886 ± 332 pg/mL | GI50 (HUVECS): 14 µM; GI50 [2]: 8.1 µM; VEGF ([3]; 5 μM, DMSO = 100): 44%; VEGF ([3]; 20 μM, DMSO = 100): 0%; Neutral Red Uptake, % (RPMI-7951 human melanoma; 5 μM): 82 % of control; Cell Viability (RPMI-7951 human melanoma; 5 μM): 91%; Neutral Red Uptake, % (RPMI-7951 human melanoma; 20 μM): 6 % of control; Cell Viability (RPMI-7951 human melanoma; 20 μM): 42%; TF ([8]; 1 μM, DMSO = 100): 113%; TF ([8]; 1 μM, DMSO control 7054): 7966 pg/mL; TF ([8]; 5 μM, DMSO = 100): 25%; TF ELISA ([8]; 5 μM, DMSO control 7054): 1793 pg/ml/well; TF [8, 15]: 1793 pg/mL; GI50 (RPMI 7951): 2.2 µM
COc1cc(C=C2CSCC(=Cc3ccc(O)c(OC)c3)C2=O)ccc1O [MD283] |  |  |  |  |  |  |  |  |  |  |  |  |  |  |  |  |  |  |  |  | GI50 (MDA-MB-435): 1.9 µM; GI50 (HUVECS): 3.1 µM; GI50 [2]: 2.1 µM; GI50 (MDA-MB-231): 1.8 µM; GI50 (RPMI 7951): 1.4 µM
